The target in data set [1] is T1, Tyrosinase (Agaricus bisporus, UniProt O42713).
T1 sequence (O42713 whole entry): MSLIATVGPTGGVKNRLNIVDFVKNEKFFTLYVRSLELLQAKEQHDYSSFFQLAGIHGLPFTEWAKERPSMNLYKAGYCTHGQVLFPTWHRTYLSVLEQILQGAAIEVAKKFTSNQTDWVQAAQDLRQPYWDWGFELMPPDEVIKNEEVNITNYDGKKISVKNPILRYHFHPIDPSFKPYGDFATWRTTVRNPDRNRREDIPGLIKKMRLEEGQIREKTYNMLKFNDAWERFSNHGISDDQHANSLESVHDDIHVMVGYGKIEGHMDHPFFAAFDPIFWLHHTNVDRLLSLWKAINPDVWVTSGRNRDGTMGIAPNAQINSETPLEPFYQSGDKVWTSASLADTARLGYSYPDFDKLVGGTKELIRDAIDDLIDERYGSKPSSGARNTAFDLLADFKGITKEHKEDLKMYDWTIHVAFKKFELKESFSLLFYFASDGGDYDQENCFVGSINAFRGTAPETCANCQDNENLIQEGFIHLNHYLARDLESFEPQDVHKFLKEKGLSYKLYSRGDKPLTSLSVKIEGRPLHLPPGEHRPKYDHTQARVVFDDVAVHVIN
Description: Inhibition of mushroom tyrosinase activity after 90 mins by spectrophotometry

Data set [2] has as its target T1, Tyrosinase. This is another data set of the same source.
Description: Inhibition of mushroom tyrosinase activity after 30 mins by spectrophotometry
In data set [3] the test system is Radical scavenging activity.
Description: Antioxidant activity assessed as DPPH radical scavenging activity incubated at 40 degC in dark after 30 mins
In data set [4] the target is T1, Tyrosinase. This is another data set of the same source.
Description: Inhibition of mushroom tyrosinase activity after 150 mins by spectrophotometry
Data set [5] in a line: Ratio of Trolox IC50 to compound IC50 for FeCl2-induced lipid peroxidation. Format: physicochemical.
A short description of data set [6]: Ratio of Trolox IC50 to compound IC50 for DPPH radical scavenging activity.
The nature of data set [7]: Ratio of Trolox IC50 to compound IC50 for ABTS radical scavenging activity.

As usually defined, the IC50 is the concentration at which inhibition is half-maximal. A higher IC50 goes with weaker potency. For `COc1ccc(C(=O)Cc2ccc(O)cc2)c(O)c1O`, the IC50 in data set [1] was 43.1 µM; in data set [2], 43.4 µM; in data set [3], 25.7 µM; in data set [4], 46.1 µM.
The corresponding values for `O=C(Cc1ccc(O)cc1)c1c(O)cc(O)cc1O` are > 300 µM, > 300 µM, 22.8 µM and 261 µM.
In data set [3], `O=C(Cc1ccccc1)c1c(O)cc(O)cc1O` returned an IC50 of 12.2 µM.
Turning to `COc1ccc(CC(=O)c2c(O)cc(O)cc2O)cc1OC`, in data set [3], the IC50 turned out to be 1.35 µM.
Regarding `COc1ccc(CC(=O)c2ccc(O)c(O)c2O)cc1OC`, the IC50 in data set [1] was 132 µM; in data set [2], 229 µM; in data set [3], 4.34 µM; in data set [4], 140 µM. For the same compound, the “Ratio IC50” value in data set [5] is 5.
Turning to `COc1ccc(CC(=O)c2cc(O)c(C)c(C)c2O)cc1`, the half-maximal inhibitory concentration (IC50) in data set [3] turned out to be 21.9 µM.
Still for that read-out and setting: to `COc1ccc(CC(=O)c2ccc(O)c(O)c2)cc1OC` belongs 2.53 µM; to `COc1cc(O)c(C(=O)Cc2ccccc2)cc1O`, 20.3 µM.
For the compound `COc1ccc(CC(=O)c2ccc(O)c(O)c2)cc1`, the IC50 was 168 µM in data set [1], > 300 µM in data set [2], 75.9 µM in data set [3] and 178 µM in data set [4].
Turning to `COc1ccc(CC(=O)c2ccc(O)c(O)c2O)cc1`, the IC50 was 203 µM in data set [1], > 300 µM in data set [2], 21.6 µM in data set [3] and 212 µM in data set [4].
The corresponding values for `COc1ccc(CC(=O)c2ccc(O)cc2O)cc1` [ONONETIN] are 160 µM, 78.9 µM, 57.4 µM and 181 µM.
The corresponding values for `COc1ccc(CC(=O)c2ccc(O)cc2O)cc1OC` are 209 µM, 112 µM, 35.1 µM and 240 µM.
In the case of `Cc1c(C)c2c(c(C)c1O)CCC(C)(C(=O)O)O2` (stereo not given) [TROLOX], the IC50 in data set [3] worked out at 9.2 µM.
Consider `O=C(Cc1ccc(O)cc1)c1ccc(O)cc1O`, for which the IC50 in data set [1] came out at 136 µM; in data set [2], 178 µM; in data set [3], 25.2 µM; in data set [4], 172 µM.
For `COc1ccc(CC(=O)c2c(O)cc(O)cc2O)cc1`, in that order: 214 µM, 71 µM, 10.8 µM and 230 µM.
Turning to `COc1ccc(CC(=O)c2cc(O)c(O)cc2O)cc1`, the concentration for half-maximal inhibition (IC50) in data set [1] was 144 µM; in data set [2] it was 84.4 µM; in data set [3], 21.5 µM; in data set [4], 197 µM.
As to `O=C(Cc1ccc(O)cc1)c1cc(O)c(O)cc1O`, in data set [6], the Ratio IC50 came out at 13. It took 0.69 µM to reach half-maximal inhibition in data set [3] (IC50).
For `O=C(Cc1ccc(O)cc1)c1ccc(O)c(O)c1O`, the Ratio IC50 in data set [7] was determined as 10. The IC50 is > 300 µM in data set [1], > 300 µM in data set [2], 5.69 µM in data set [3] and > 500 µM in data set [4].
In data set [3], `O=C1O[C@H]([C@@H](O)CO)C(O)=C1O` [ASCORBIC ACID] gave an IC50 of 73.7 µM.

The values above are taken from ChEMBL document CHEMBL1152962 (Bioorg Med Chem, 2009).
